According to ChEMBL document CHEMBL1201862, “PubChem BioAssay data set” (2004):
The source made the active and inactive calls.

Columns and labels:
[1] = Luminescence Cell-Based Dose Response to Identify Activators of Luciferase Translation or Activity in H4-C Neuroglioblastoma Cells. [Related pubchem assays: 1829 (Project Summary), 1814 (Primary HTS)]; format: functional
[2] = Luminescence Cell-Based Dose Response to Identify Activators of 5'UTR Stem-Loop Driven Prion Protein mRNA Translation in H4-C Neuroglioblastoma Cells. [Related pubchem assays: 1829 (Project Summary), 1814 (Primary HTS)]; format: functional
[3] = Luminescence Cell-Based Dose Confirmation HTS to Identify Activators of 5'UTR Stem-Loop Driven Alpha-Synuclein mRNA Translation in H4 Neuroglioblastoma Cells. [Related pubchem assays: 1829 (Project Summary), 1814 (Primary HTS)]; format: functional
[4] = test system: H4; experiment: Luminescence Cell-Based Dose Response HTS to Identify Activators of 5'UTR Stem-Loop Driven Prion Protein mRNA Translation in H4 Neuroglioblastoma Cells. [Related pubchem assays: 1829 (Project Summary), 1814 (Primary HTS)]; format: functional; settings: Homo sapiens
[5] = Luminescence Cell-Based Dose Confirmation to Identify Activators of 5'UTR Stem-Loop Driven Alpha-Synuclein mRNA Translation in H4 Neuroglioblastoma Cells. [Related pubchem assays: 1829 (Project Summary), 1814 (Primary HTS)]; format: functional
[6] = Luminescence Cell-Based Dose Response HTS to Identify Activators of Luciferase Translation or Activity in H4 […] Cells. [Related pubchem assays: 1829 (Project Summary), 1814 (Primary HTS)]; format: functional
[7] = biological target: T1, Bcl-2-related protein A1 (Mus musculus, UniProt Q07440); experiment: Bfl-1 binding inhibitors, SAR follow-up, biochemical, fluorescence polarization (AID 1070)
T1 sequence (Q07440 whole entry): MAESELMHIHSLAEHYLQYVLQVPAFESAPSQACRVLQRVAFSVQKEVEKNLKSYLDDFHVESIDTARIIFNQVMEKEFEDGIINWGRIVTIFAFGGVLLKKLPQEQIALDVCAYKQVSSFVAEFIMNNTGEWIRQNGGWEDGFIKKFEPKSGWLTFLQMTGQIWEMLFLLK

[8] = biological target: T1, Bcl-2-related protein A1; experiment: Bfl-1 inhibitors blocking BH3 peptide binding, confirmation, biochemical, TR-FRET, mouse Bfl-1 (AID 621);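 note: TR-FRET binding of GST-Bfl-1 to FITC-labelled Bid peptide via terbium antibody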
[9] = biological target: Glyceraldehyde-3-phosphate dehydrogenase (Homo sapiens, UniProt P04406)
[10] = P. falciparum Dd2 growth inhibitors, dose response, SYBR Green, dry powder samples, set 9 (AID 1159568); format: functional, cell-based
[11] = Luminescence Cell-Based Dose Confirmation HTS to Identify Inhibitors of Platelet Dense Granule Release. [Related pubchem assays: 1663 (Primary HTS), 1678 (Summary of Project)]; format: functional
[12] = biological target: Luciferin 4-monooxygenase (Photinus pyralis, UniProt P08659); experiment: firefly luciferase enzyme inhibitors, dose response, biochemical, luminescence (AID 1891)
[13] = biological target: E3 ubiquitin-protein ligase Mdm2 (Homo sapiens, UniProt Q00987); experiment: enhancers of MDM2-luciferase reporter signal, concentration-effect titration, project on inhibitors of MDM2 ubiquitin ligase, cellular assay, luminescent readout, 384-well plate format (AID 1394); format: functional;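 note: MDM2 E3 inhibitors raise luminescence so EC50 is for signal enhancement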
[14] = biological target: Mitogen-activated protein kinase 10 (Homo sapiens, UniProt P53779); experiment: Dose response biochemical screening assay for inhibitors of c-Jun N-Terminal Kinase 3 (JNK3). [Related pubchem assays: 746 ]
[15] = biological target: T2, Oxysterols receptor LXR-beta (Homo sapiens, UniProt P55055); experiment: LXR agonists, Gal4 luciferase reporter, dose response, counter-screen for ssDAF-12 agonist project, cell-based, luminescence, HEK293, S. stercoralis campaign (AID 720737); format: functional; settings: read-out: IC50 (the source's name)
T2 sequence (P55055 whole entry): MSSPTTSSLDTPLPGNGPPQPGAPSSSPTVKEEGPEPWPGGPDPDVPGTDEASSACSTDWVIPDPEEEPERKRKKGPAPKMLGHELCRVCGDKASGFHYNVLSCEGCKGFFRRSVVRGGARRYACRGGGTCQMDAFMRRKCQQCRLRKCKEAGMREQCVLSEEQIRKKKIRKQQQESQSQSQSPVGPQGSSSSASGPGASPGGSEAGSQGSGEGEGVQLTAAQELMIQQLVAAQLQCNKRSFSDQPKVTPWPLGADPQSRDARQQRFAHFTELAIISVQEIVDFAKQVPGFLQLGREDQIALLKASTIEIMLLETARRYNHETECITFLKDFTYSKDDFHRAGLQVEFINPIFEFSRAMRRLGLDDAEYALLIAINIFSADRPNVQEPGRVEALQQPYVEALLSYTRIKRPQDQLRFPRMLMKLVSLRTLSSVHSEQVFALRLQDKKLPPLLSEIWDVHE

[16] = Luminescence-based cell-based high throughput dose response assay to identify activators of the DAF-12 from the parasite S. stercoralis (ssDAF-12).; format: functional

Sequence of Mitogen-activated protein kinase 10 (P53779 whole entry, the tested form may be a part): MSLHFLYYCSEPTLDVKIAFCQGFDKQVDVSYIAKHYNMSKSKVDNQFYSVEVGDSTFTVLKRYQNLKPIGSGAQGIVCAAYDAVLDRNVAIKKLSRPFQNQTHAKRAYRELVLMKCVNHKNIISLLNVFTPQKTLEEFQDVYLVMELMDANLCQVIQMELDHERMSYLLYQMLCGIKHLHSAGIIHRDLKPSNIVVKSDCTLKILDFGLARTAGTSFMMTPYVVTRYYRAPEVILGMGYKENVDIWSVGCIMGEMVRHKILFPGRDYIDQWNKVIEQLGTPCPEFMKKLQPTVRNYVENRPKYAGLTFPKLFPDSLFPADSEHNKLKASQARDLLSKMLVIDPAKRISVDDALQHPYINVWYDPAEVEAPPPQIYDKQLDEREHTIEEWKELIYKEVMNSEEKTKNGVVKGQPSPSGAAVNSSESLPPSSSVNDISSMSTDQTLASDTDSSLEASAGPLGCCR
Sequence of Luciferin 4-monooxygenase (P08659 whole entry): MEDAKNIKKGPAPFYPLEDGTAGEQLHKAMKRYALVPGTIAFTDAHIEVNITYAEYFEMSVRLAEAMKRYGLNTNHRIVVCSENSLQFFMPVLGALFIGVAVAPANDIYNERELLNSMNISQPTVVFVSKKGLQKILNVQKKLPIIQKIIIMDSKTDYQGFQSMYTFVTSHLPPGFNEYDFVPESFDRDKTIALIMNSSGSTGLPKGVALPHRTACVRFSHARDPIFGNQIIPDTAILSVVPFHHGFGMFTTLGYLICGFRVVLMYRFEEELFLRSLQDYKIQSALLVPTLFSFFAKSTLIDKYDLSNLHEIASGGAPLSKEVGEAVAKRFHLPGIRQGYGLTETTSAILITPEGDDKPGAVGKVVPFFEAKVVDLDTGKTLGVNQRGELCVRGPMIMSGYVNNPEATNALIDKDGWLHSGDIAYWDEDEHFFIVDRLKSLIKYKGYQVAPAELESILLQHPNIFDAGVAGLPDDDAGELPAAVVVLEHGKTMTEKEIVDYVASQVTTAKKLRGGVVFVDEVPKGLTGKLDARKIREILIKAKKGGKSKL
Sequence of Glyceraldehyde-3-phosphate dehydrogenase (P04406 whole entry): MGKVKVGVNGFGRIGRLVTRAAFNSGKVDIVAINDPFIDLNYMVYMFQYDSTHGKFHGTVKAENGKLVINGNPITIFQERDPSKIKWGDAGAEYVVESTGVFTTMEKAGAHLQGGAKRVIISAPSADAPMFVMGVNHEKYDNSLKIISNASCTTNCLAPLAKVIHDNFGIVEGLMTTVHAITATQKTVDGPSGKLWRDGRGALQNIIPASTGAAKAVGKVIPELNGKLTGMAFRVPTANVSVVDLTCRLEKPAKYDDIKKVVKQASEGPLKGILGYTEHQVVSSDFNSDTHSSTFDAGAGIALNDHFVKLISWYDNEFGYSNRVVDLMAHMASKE
Sequence of E3 ubiquitin-protein ligase Mdm2 (Q00987 whole entry): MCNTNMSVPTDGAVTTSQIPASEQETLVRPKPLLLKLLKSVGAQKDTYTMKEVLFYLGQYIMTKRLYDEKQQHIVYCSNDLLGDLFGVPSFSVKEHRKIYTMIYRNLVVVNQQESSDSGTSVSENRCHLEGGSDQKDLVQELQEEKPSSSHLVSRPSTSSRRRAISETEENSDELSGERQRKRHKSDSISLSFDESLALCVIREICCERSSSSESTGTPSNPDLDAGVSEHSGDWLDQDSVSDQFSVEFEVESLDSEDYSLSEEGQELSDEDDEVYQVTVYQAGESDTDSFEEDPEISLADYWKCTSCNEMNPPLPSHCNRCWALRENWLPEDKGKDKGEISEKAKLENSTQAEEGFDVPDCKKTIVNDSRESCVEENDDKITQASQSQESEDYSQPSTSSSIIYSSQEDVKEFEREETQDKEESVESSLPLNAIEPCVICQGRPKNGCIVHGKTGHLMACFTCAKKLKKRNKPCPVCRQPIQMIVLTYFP

COc1cccc(NC(=O)C(=O)N/N=C(\C)CC(=O)Nc2ccc(NC(C)=O)cc2)c1
EC50 [1]: > 12 µM (not active) | EC50 [2]: > 12 µM (not active) | EC50 [3]: < 0.1 µM (active) | EC50 [4]: 25.6 µM (active) | EC50 [5]: 1.25 µM (active) | EC50 [6]: 9.31 µM (active)

Cc1cccc(N2CCN(C3=C(Cl)C(=O)N(c4ccc(Cl)c(Cl)c4)C3=O)CC2)c1C
IC50 [7]: > 100 µM (not active) | IC50 [8]: > 100 µM (not active) | IC50 [9]: > 100 µM (not active)

O=C(C1CCOCC1)N1C[C@@H]2[C@H](c3ccccc31)[C@H](CO)N2C(=O)Cc1ccccn1
AC50 [10]: 22.9 µM (active)

Cc1nnc(SCCN2CCOCC2)c2nn(-c3ccccc3F)c(C)c12
EC50 [11]: > 112 µM (not active) | EC50 [12]: > 112 µM (not active) | EC50 [13]: 2.43 µM (not active)

C/C(NC1CCCC1)=C(/C#N)C(N)=O
IC50 [14]: 33.3 µM (not active)

CC(=O)NC1(c2ccccc2)CCN(c2cc(C)nc(-c3ccccc3)n2)CC1
EC50 [15]: > 67.5 µM (inactive) | IC50 [16]: > 67.5 µM (inactive)
